In patent EP1992228A1, “Insecticidal substituted thiourea derivatives” (Bayer CropScience AG, priority 2007, dated 2008):

How the values were obtained:
[1] = tested on: Myzus persicae; experiment: Myzus persicae-test (MYZUPE, spray application); type: in vivo; settings: spray on Chinese cabbage leaf-disks, green peach aphid, all instars; for mortality at 100 g/ha: application rate of 100 g/ha; for mortality at 500 g/ha: application rate of 500 g/ha
Procedure: Myzus persicae-test (MYZUPE, spray application) [table] [table] To produce a suitable preparation of active compound, 1 part by weight of active compound is mixed with the stated amount of solvent and emulsifier, and the concentrate is diluted with emulsifier-containing water to the desired concentration. Chinese cabbage (Brassica pekinensis) leaf-disks infected with all instars of the green peach aphid (Myzus persicae), are sprayed with a preparation of the active ingredient at the desired concentration. After the specified period of time, mortality in % is determined. 100 % means that all aphids have been killed; 0 % means that none of the […] have been killed.

[2] = tested on: Tetranychus urticae; experiment: Tetranychus-test, OP-resistant (TETRUR, spray application); type: in vivo; settings: application rate of 100 g/ha, spray on French bean, two spotted spidermite, all stages
Procedure: Tetranychus-test, OP-resistant (TETRUR, spray application)
(§1) To produce a suitable preparation of active compound, 1 part by weight of active compound is mixed with the stated amount of solvent and emulsifier, and the concentrate is diluted with emulsifier-containing water to the desired concentration.
French bean (Phaseolus vulgaris) which are heavily infested with all stages of the two spotted spidermite (Tetranychus urticae), are sprayed with a preparation of the active ingredient at the desired concentration.
After the specified period of time, mortality in % is determined. 100 % means that all spider mites have been killed; 0 % means that none of the […] have been killed.

[3] = tested on: Boophilus microplus; experiment: Boophilus microplus-test (injektion); type: in vivo; settings: application rate of 20 µg/animal; injected in the abdomen
Procedure: Boophilus microplus-test (injektion)
as §1
The solution of the active compound is injected in the abdomen (Boophilus microplus); the animals are transferred into a cup and stayed in a rooming with an air condition.
After the specified period of time, the efficiany mortality in % is determined. 100 % means that no tick has lay fertile eggs.

[4] = logP (HCOOH) determination; type: physicochemical
[5] = tested on: Meloidogyne incognita; experiment: Meloidogyne-test, OP resistant (MELGIN spray application); type: in vivo; settings: application rate of 20 ppm, sand with egg/larval suspension and lettuce seeds, read-out: activity (nematicidal efficacy in % with reference to gall formation)
Procedure: Meloidogyne-test, OP resistant (MELGIN spray application)
as §1
Containers are filled with sand, active compound solution, Meloidogyne incognita egg/larval suspension and lettuce seeds. The lettuce seeds germinate and the plantlets develop. The galls develop on the roots.
After the desired time, the nematicidal efficacy is determined in % with reference to gall formation. 100 % means that no galls were found; 0 % means that the number of galls on the treated plants corresponds to that of the untreated control.

Row | SMILES | efficiency (100 % means that no tick has lay fertile eggs) [3] [%] | mortality at 500 g/ha [1] [%] | other results
1 | C[C@H](NC(=S)NCCO)c1ccccc1F [compound 6] | ≥ 80 | – | mortality at 100 g/ha [1]: ≥ 80%; mortality at 100 g/ha [2]: ≥ 80%
2 | C[C@H](NC(=S)NCCO)c1ccccc1F [EXAMPLE 2] | – | – | chromatographic logP [4]: 1.5
3 | C[C@H](NC(=S)NCCO)c1ccc(F)cc1 [compound 8] | – | ≥ 80 | –
4 | CC(NC(=S)NCCO)c1cccc(F)c1 (centres unmarked) [compound 3] | ≥ 80 | – | mortality at 100 g/ha [1]: ≥ 80%
5 | CC[C@H](NC(=S)NCCO)c1ccccc1 [compound 13] | – | ≥ 80 | –
6 | C[C@H](NC(=S)NCCO)c1ccc(F)cc1 [EXAMPLE 1] | – | – | chromatographic logP [4]: 1.52
7 | C[C@H](NC(=S)NCCO)c1ccc(Cl)cc1 [Compound No. 158] | ≥ 80 | ≥ 80 | mortality at 100 g/ha [2]: ≥ 80%; inhibition at 20 ppm [5]: ≥ 80%
8 | C[C@H](NC(=S)NCCO)c1ccccc1 [compound 5] | – | ≥ 80 | –
